Target: Cav2.3 (Homo sapiens, UniProt Q15878)
Experiment: Human Cav2.3 channel calcium-influx assay
Type: cell-based
Details: Fluo8 fluorescence, HEK-293 T-Rex/Kir2.1/Cav2.3e cells, without pluronic acid, read-out: Cav2.3 (pIC50) (converted)
Method in brief: (§1)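 HEK-293 T-Rex/Kir2.1 cells with doxycycline (0.2 μg/mL)-inducible Cav2.3e plus Cavβ4-α2δ1, loaded with Fluo8 NW in 0 mM K+ Tyrode's. Compounds (8 points, top 30 μM, half-log, 0.3% final DMSO, n=4) preincubated 3 min at RT, then depolarized with 20 mM KCl/2 mM CaCl2 (final); fluorescence read 130 s.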

Chain of Cav2.3 (Q15878 whole entry, looked up): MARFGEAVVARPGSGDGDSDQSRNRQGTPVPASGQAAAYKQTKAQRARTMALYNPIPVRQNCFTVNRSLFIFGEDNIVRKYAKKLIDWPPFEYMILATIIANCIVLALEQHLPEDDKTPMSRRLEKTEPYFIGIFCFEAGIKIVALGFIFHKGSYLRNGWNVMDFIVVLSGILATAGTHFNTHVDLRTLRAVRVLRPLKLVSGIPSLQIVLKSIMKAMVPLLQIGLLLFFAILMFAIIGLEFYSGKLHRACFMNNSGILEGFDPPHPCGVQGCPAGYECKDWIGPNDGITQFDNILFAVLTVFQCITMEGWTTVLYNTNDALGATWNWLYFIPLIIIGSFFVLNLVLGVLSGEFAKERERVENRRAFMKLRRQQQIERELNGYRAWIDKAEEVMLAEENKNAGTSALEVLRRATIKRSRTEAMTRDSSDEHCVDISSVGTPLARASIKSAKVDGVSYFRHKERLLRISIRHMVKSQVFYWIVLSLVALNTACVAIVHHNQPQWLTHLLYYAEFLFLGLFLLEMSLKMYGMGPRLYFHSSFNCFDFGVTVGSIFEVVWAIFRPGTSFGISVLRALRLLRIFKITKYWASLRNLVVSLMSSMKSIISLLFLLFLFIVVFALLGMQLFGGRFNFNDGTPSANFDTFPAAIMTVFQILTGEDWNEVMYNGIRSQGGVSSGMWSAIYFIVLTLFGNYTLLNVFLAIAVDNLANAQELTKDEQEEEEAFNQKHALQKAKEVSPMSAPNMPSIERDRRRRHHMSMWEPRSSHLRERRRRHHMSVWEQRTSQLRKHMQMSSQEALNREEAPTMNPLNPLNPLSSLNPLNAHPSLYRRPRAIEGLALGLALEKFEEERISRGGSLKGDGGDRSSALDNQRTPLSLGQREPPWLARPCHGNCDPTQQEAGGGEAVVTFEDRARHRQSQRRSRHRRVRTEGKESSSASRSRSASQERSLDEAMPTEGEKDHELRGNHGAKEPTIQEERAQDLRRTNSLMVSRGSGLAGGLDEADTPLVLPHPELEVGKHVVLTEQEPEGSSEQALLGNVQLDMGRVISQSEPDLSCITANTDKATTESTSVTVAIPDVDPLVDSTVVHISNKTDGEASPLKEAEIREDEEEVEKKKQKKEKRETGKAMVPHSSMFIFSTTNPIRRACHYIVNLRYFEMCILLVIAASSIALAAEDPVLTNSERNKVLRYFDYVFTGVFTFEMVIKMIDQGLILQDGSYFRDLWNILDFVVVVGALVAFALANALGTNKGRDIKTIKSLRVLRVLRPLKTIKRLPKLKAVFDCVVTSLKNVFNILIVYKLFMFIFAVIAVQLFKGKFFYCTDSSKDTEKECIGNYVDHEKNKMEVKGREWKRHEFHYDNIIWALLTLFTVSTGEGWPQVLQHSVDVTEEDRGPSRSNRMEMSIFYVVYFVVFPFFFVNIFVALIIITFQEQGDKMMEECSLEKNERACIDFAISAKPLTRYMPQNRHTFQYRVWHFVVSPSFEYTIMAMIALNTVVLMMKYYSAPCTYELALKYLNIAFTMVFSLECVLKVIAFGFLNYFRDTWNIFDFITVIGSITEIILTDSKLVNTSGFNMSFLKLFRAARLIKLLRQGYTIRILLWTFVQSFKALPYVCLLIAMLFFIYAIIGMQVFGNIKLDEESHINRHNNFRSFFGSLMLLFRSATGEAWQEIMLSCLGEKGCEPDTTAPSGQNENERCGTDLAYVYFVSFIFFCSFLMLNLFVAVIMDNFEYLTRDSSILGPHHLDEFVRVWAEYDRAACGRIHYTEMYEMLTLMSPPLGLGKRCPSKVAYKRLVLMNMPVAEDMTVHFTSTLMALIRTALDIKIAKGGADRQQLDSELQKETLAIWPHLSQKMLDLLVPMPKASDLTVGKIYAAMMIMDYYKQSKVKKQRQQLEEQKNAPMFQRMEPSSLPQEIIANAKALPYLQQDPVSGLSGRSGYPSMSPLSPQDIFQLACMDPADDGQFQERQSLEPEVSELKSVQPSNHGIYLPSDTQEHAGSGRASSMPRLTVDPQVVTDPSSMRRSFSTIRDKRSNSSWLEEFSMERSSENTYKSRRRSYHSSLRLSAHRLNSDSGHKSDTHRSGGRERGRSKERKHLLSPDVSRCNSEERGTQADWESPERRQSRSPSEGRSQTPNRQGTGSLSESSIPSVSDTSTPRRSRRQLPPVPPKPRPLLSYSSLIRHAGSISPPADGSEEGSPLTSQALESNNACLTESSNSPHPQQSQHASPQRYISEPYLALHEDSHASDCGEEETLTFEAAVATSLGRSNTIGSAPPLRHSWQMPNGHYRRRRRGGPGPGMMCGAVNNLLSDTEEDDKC

| Compound | IC50 [nM] |
| --- | --- |
| CN([C@@H](c1ccc(F)cc1)C(F)(F)F)S(=O)(=O)c1ccc(F)s1 (stereo in doubt) [Example 18, 5-fluoro-N-methyl-N-(2,2,2-trifluoro-1-(4-fluorophenyl)ethyl)thiophene-2-sulfonamide] | 11700 |
| CN([C@H](c1ccc(F)cc1)C(F)(F)F)S(=O)(=O)c1ccc(F)s1 (stereo in doubt) [Example 19, 5-fluoro-N-methyl-N-(2,2,2-trifluoro-1-(4-fluorophenyl)ethyl)thiophene-2-sulfonamide] | 2400 |
| CN(C(c1ccc(F)cc1)C(F)(F)F)S(=O)(=O)c1ccc(Cl)s1 (stereo not drawn) [Example 1, 5-chloro-N-methyl-N-(2,2,2-trifluoro-1-(4-fluorophenyl)ethyl)thiophene-2-sulfonamide] | 8910 |
| CN(C(c1ccc(F)cc1)C(F)(F)F)S(=O)(=O)c1ccc(F)s1 (stereo not drawn) [Example 17, 5-fluoro-N-methyl-N-(2,2,2-trifluoro-1-(4-fluorophenyl)ethyl)thiophene-2-sulfonamide] | 3630 |
| CCN(C(c1ccc(F)cc1)C(F)(F)F)S(=O)(=O)c1ccc(C#N)s1 (stereo not drawn) [Example 21, 5-cyano-N-ethyl-N-(2,2,2-trifluoro-1-(4-fluorophenyl)ethyl)thiophene-2-sulfonamide] | 437 |
| CCN(C(c1ccc(F)cc1)C(F)(F)F)S(=O)(=O)c1ccc(C(N)=O)s1 (stereo not drawn) [Example 22, 5-(N-ethyl-N-(2,2,2-trifluoro-1-(4-fluorophenyl)ethyl)sulfamoyl)thiophene-2-carboxamide] | 741 |
| CCN(C(c1ccc(F)cc1)C(F)(F)F)S(=O)(=O)c1ccc(C(=O)N(C)C)s1 (stereo not drawn) [Example 25, 5-(N-ethyl-N-(2,2,2-trifluoro-1-(4-fluorophenyl)ethyl)sulfamoyl)-N,N-dimethylthiophene-2-carboxamide] | 282 |
| CCN(C(c1ccc(F)cc1)C(F)(F)F)S(=O)(=O)c1ccc2c(c1)S(=O)(=O)CC2 (stereo not drawn) [Example 28, N-ethyl-N-(2,2,2-trifluoro-1-(4-fluorophenyl)ethyl)-2,3-dihydrobenzo[b]thiophene-6-sulfonamide 1,1-dioxide] | 355 |
| CCN([C@@H](c1ccc(F)cc1)C(F)(F)F)S(=O)(=O)c1cccc(C)n1 [Example 32, (S)—N-ethyl-6-methyl-N-(2,2,2-trifluoro-1-(4-fluorophenyl)ethyl)pyridine-2-sulfonamide] | 3800 |

Further lines, results first:

| IC50 [nM] | Compound |
| --- | --- |
| 155 | CN(C(c1ccc(F)cc1)C(F)(F)F)S(=O)(=O)c1cncc(C#N)c1 (racemic) [Example 272, 5-Cyano-N-methyl-N-(2,2,2-trifluoro-1-(4-fluorophenyl)ethyl)pyridine-3-sulfonamide] |
| 95.5 | CCN(C(c1ccc(F)cc1)C(F)(F)F)S(=O)(=O)c1cncc(C(N)=O)c1 (stereo in doubt) [Example 52, (S)-5-(N-ethyl-N-(2,2,2-trifluoro-1-(4-fluorophenyl)ethyl)sulfamoyl)nicotinamide] |
| 1780 | CCN(C(c1ccc(F)cc1)C(F)(F)F)S(=O)(=O)c1cncc(C(N)=O)c1 (stereo in doubt) [Example 53, (R)-5-(N-ethyl-N-(2,2,2-trifluoro-1-(4-fluorophenyl)ethyl)sulfamoyl)nicotinamide] |
| 468 | CCN(C(c1ccc(F)cc1)C(F)(F)F)S(=O)(=O)c1cnc(C(N)=O)s1 (stereo not drawn) [Example 46, 5-(N-ethyl-N-(2,2,2-trifluoro-1-(4-fluorophenyl)ethyl)sulfamoyl)thiazole-2-carboxamide] |

System: Human Cav2.3 channel
Experiment: Human Cav2.3 channel calcium-influx assay
Type: cell-based
Details: Fluo8 fluorescence, HEK-293 T-Rex/Kir2.1/Cav2.3e cells, without pluronic acid
Method in brief: as §1

| Cav2.3 (pIC50) | Compound |
| --- | --- |
| 6.54 | Cc1ccc(S(=O)(=O)N(C)[C@H](c2ccc(C(F)(F)F)cc2)C(F)(F)F)cn1 [Example 266, (R)—N,6-dimethyl-N-(2,2,2-trifluoro-1-(4-(trifluoromethyl)phenyl)ethyl)pyridine-3-sulfonamide] |
| 7.09 | CN([C@H](c1ccc(C(F)(F)F)cc1)C(F)(F)F)S(=O)(=O)c1cccnc1 [Example 267, (R)—N-methyl-N-(2,2,2-trifluoro-1-(4-(trifluoromethyl)phenyl)ethyl)pyridine-3-sulfonamide] |

Reference: patent US20250115569A1, “SULFONAMIDE COMPOUNDS FOR THE TREATMENT OF NEUROLOGICAL CONDITIONS” (LARIO THERAPEUTICS LIMITED, priority 2021, published 2025)
